From patent publication US8426202B2, “Cell culture medium” (Cellca GmbH, priority 2005, dated 2013)
“And” between values parts separate entries of the source, which are not always exact repeats. Identical values can stand only once.

Key:
[1] = tested on: CHO cell line that expresses an antibody; test: Batch experiment with the substances according to the invention (Example 1); type: cell-based, Chinese hamster; settings: batch mode, substance 0.5-1 g/l, basal medium glucose 4.7 g/l, glutamine […]
Protocol: Cells were stored in the gas phase of liquid nitrogen. One to two ampoules were thawed in nutrient medium preheated to 37° C. and transferred to spinner bottles, shaking flasks or T-bottles. In the first few days of cultivation the medium was changed, depending on the clone.
Depending on the clone, cells were split either every second day or every third day or after two and three days alternately into new medium, i.e. a portion of the cell suspension was removed from culture and a smaller portion of the cell suspension was reused as inoculum for the next culture. This inoculum was made up with fresh prewarmed nutrient medium. Cells were incubated at 37° C. in an incubator with a CO2 atmosphere. An alternative for incubating cells was cultivation in an incubation chamber at 37° C., in this way cells were held in culture for several passages. A passage means a cultivation time of two to three days. At various points of time, cell suspension was taken from strain maintenance and used as inoculum for experiments. The experiments were carried out in various cultivation systems, for example in spinner bottles, T-bottles, shaking flasks, culture tubes or in controlled bioreactors.
(§1) Feed took place at regular intervals.

[2] = tested on: CHO cell line that expresses an antibody; test: Fed-batch experiment with the substances according to the invention (Example 2, Table 2); type: cell-based, Chinese hamster; set-up: Viabil.: concentration or dose not given beside the values
From the text: as §1

O=C([O-])/C=C/C(=O)[O-].[Na+].[Na+] [Sodium fumarate]
Gln ([1]; day 0): 1.53 mM | Glucose ([1]; day 0): 4.69 g/L | Lactate ([1]; day 0): 0 g/L | NH4 ([1]; day 0): 1.22 mM | Specific Glutamin consumption (Gln/VCD) ([1]; day 0): 1.49 | Specific ammonia production (NH4/VCD) ([1]; day 0): 1.18 | Specific glucose consumption (Gluc/VCD) ([1]; day 0): 4.55 | Specific lactate production (Lac/VCD) ([1]; day 0): 0.00 | Total Cell Density TCD ([1]; day 0): 1.07 E5/ml | Viabil. ([1]; day 0): 96% | Viable Cell Density (VCD) ([1]; day 0): 1.03 E5/ml | Gln ([1]; day 3): 0.72 mM | Glucose ([1]; day 3): 3.98 g/L | Lactate ([1]; day 3): 0.85 g/L | NH4 ([1]; day 3): 1.84 mM | Specific Glutamin consumption (Gln/VCD) ([1]; day 3): 0.10 | Specific ammonia production (NH4/VCD) ([1]; day 3): 0.26 | Specific glucose consumption (Gluc/VCD) ([1]; day 3): 0.57 | Specific lactate production (Lac/VCD) ([1]; day 3): 0.12 | Total Cell Density TCD ([1]; day 3): 7.1 E5/ml | Viabil. ([1]; day 3): 99% | Viable Cell Density (VCD) ([1]; day 3): 7 E5/ml | Gln ([1]; day 6): 0.24 mM | Glucose ([1]; day 6): 2.61 g/L | Lactate ([1]; day 6): 1.19 g/L | NH4 ([1]; day 6): 2.49 mM | Specific Glutamin consumption (Gln/VCD) ([1]; day 6): 0.01 | Specific ammonia production (NH4/VCD) ([1]; day 6): 0.06 | Specific glucose consumption (Gluc/VCD) ([1]; day 6): 0.06 | Specific lactate production (Lac/VCD) ([1]; day 6): 0.03 | Total Cell Density TCD ([1]; day 6): 41.5 E5/ml | Viabil. ([1]; day 6): 98% | Viable Cell Density (VCD) ([1]; day 6): 40.6 E5/ml | Gln ([1]; day 8): 0.37 mM | Glucose ([1]; day 8): 1.68 g/L | Lactate ([1]; day 8): 1.08 g/L | NH4 ([1]; day 8): 2.58 mM | Specific Glutamin consumption (Gln/VCD) ([1]; day 8): 0.02 | Specific ammonia production (NH4/VCD) ([1]; day 8): 0.14 | Specific glucose consumption (Gluc/VCD) ([1]; day 8): 0.09 | Specific lactate production (Lac/VCD) ([1]; day 8): 0.06 | Total Cell Density TCD ([1]; day 8): 22.3 E5/ml | Viabil. ([1]; day 8): 86% | Viable Cell Density (VCD) ([1]; day 8): 19.1 E5/ml | Gln ([1]; day 11): 0.47 mM | Glucose ([1]; day 11): 0.46 g/L | Lactate ([1]; day 11): 1.46 g/L | NH4 ([1]; day 11): 3.06 mM | Specific Glutamin consumption (Gln/VCD) ([1]; day 11): 0.03 | Specific ammonia production (NH4/VCD) ([1]; day 11): 0.21 | Specific glucose consumption (Gluc/VCD) ([1]; day 11): 0.03 | Specific lactate production (Lac/VCD) ([1]; day 11): 0.10 | Total Cell Density TCD ([1]; day 11): 26.2 E5/ml | Viabil. ([1]; day 11): 55% | Viable Cell Density (VCD) ([1]; day 11): 14.3 E5/ml | Total Cell Density TCD ([2]; day 0, fed-batch): 1.5 E5/ml | Viabil. ([2]; day 0, fed-batch): 91% | Viable Cell Density (VCD) ([2]; day 0, fed-batch): 1.37 E5/ml | Total Cell Density TCD ([2]; day 2, fed-batch): 3.6 E5/ml | Viabil. ([2]; day 2, fed-batch): 97% | Viable Cell Density (VCD) ([2]; day 2, fed-batch): 3.5 E5/ml | Total Cell Density TCD ([2]; day 5, fed-batch): 13.9 E5/ml and 13.2 E5/ml | Viabil. ([2]; day 5, fed-batch): 96% and 97% | Viable Cell Density (VCD) ([2]; day 5, fed-batch): 13.4 E5/ml and 12.8 E5/ml | Total Cell Density TCD ([2]; day 8, fed-batch): 43.9 E5/ml and 43.8 E5/ml | Viabil. ([2]; day 8, fed-batch): 92% | Viable Cell Density (VCD) ([2]; day 8, fed-batch): 40.3 E5/ml and 40.2 E5/ml

CC(=O)C(=O)[O-].[Na+] [Sodium pyruvate]
Gln ([1]; day 0): 1.53 mM | Glucose ([1]; day 0): 4.69 g/L | Lactate ([1]; day 0): 0 g/L | NH4 ([1]; day 0): 1.22 mM | Specific Glutamin consumption (Gln/VCD) ([1]; day 0): 1.49 | Specific ammonia production (NH4/VCD) ([1]; day 0): 1.18 | Specific glucose consumption (Gluc/VCD) ([1]; day 0): 4.55 | Specific lactate production (Lac/VCD) ([1]; day 0): 0.00 | Total Cell Density TCD ([1]; day 0): 1.07 E5/ml | Viabil. ([1]; day 0): 96% | Viable Cell Density (VCD) ([1]; day 0): 1.03 E5/ml | Gln ([1]; day 3): 1.02 mM | Glucose ([1]; day 3): 4.55 g/L | Lactate ([1]; day 3): 0.38 g/L | NH4 ([1]; day 3): 1.72 mM | Specific Glutamin consumption (Gln/VCD) ([1]; day 3): 0.13 | Specific ammonia production (NH4/VCD) ([1]; day 3): 0.22 | Specific glucose consumption (Gluc/VCD) ([1]; day 3): 0.59 | Specific lactate production (Lac/VCD) ([1]; day 3): 0.05 | Total Cell Density TCD ([1]; day 3): 7.8 E5/ml | Viabil. ([1]; day 3): 99% | Viable Cell Density (VCD) ([1]; day 3): 7.7 E5/ml | Gln ([1]; day 6): 0.25 mM | Glucose ([1]; day 6): 2.81 g/L | Lactate ([1]; day 6): 1.32 g/L | NH4 ([1]; day 6): 1.91 mM | Specific Glutamin consumption (Gln/VCD) ([1]; day 6): 0.01 | Specific ammonia production (NH4/VCD) ([1]; day 6): 0.04 | Specific glucose consumption (Gluc/VCD) ([1]; day 6): 0.06 | Specific lactate production (Lac/VCD) ([1]; day 6): 0.03 | Total Cell Density TCD ([1]; day 6): 45 E5/ml | Viabil. ([1]; day 6): 98% | Viable Cell Density (VCD) ([1]; day 6): 44 E5/ml | Gln ([1]; day 8): 0.38 mM | Glucose ([1]; day 8): 1.79 g/L | Lactate ([1]; day 8): 1.34 g/L | NH4 ([1]; day 8): 2.23 mM | Specific Glutamin consumption (Gln/VCD) ([1]; day 8): 0.02 | Specific ammonia production (NH4/VCD) ([1]; day 8): 0.10 | Specific glucose consumption (Gluc/VCD) ([1]; day 8): 0.08 | Specific lactate production (Lac/VCD) ([1]; day 8): 0.06 | Total Cell Density TCD ([1]; day 8): 24.5 E5/ml | Viabil. ([1]; day 8): 88% | Viable Cell Density (VCD) ([1]; day 8): 21.6 E5/ml | Gln ([1]; day 11): 0.49 mM | Glucose ([1]; day 11): 0.63 g/L | Lactate ([1]; day 11): 1.93 g/L | NH4 ([1]; day 11): 3.06 mM | Specific Glutamin consumption (Gln/VCD) ([1]; day 11): 0.05 | Specific ammonia production (NH4/VCD) ([1]; day 11): 0.30 | Specific glucose consumption (Gluc/VCD) ([1]; day 11): 0.06 | Specific lactate production (Lac/VCD) ([1]; day 11): 0.19 | Total Cell Density TCD ([1]; day 11): 24.2 E5/ml | Viabil. ([1]; day 11): 43% | Viable Cell Density (VCD) ([1]; day 11): 10.3 E5/ml | Total Cell Density TCD ([2]; day 0, fed-batch): 1.5 E5/ml | Viabil. ([2]; day 0, fed-batch): 91% | Viable Cell Density (VCD) ([2]; day 0, fed-batch): 1.37 E5/ml | Total Cell Density TCD ([2]; day 2, fed-batch): 3.2 E5/ml | Viabil. ([2]; day 2, fed-batch): 97% | Viable Cell Density (VCD) ([2]; day 2, fed-batch): 3.1 E5/ml | Total Cell Density TCD ([2]; day 5, fed-batch): 13.7 E5/ml | Viabil. ([2]; day 5, fed-batch): 99% | Viable Cell Density (VCD) ([2]; day 5, fed-batch): 13.5 E5/ml | Total Cell Density TCD ([2]; day 8, fed-batch): 46 E5/ml | Viabil. ([2]; day 8, fed-batch): 90% | Viable Cell Density (VCD) ([2]; day 8, fed-batch): 41.5 E5/ml
